Source: ChEMBL document CHEMBL1201862, “PubChem BioAssay data set” (2004)
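How tested: cells in 96-well plates exposed to compound for 48 hours at five concentrations. Here, GI50 denotes the concentration required for 50% inhibition of growth.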 The source made the active and inactive calls. Rule as the data show it: active = GI50 up to about 1.1 µM and inactive = higher.

How the values were obtained:
Test in all cases: NCI tumour cell line growth inhibition, 48 h
UACC-257 = test system: UACC-257
HOP-92 = test system: HOP-92
IGROV-1 = test system: IGROV-1
NCI-H522 = test system: NCI-H522
TK-10 = test system: TK-10
NCI-H23 = test system: NCI-H23
SW-620 = test system: SW-620
RXF 393 = test system: RXF 393
OVCAR-3 = test system: OVCAR-3
SK-MEL-28 = test system: SK-MEL-28
SK-MEL-5 = test system: SK-MEL-5
LOX IMVI = test system: LOX IMVI
SK-OV-3 = test system: SK-OV-3
U-251 = test system: U-251
K562 = test system: K562
M14 = test system: M14
786-0 = test system: 786-0
MDA-N = test system: MDA-N
PC-3 = test system: PC-3
DU-145 = test system: DU-145

Compound	GI50 (UACC-257)	GI50 (HOP-92)	GI50 (IGROV-1)	GI50 (NCI-H522)	GI50 (TK-10)	GI50 (NCI-H23)	GI50 (SW-620)	GI50 (RXF 393)	GI50 (OVCAR-3)	GI50 (SK-MEL-28)	GI50 (SK-MEL-5)	GI50 (LOX IMVI)	GI50 (SK-OV-3)	GI50 (U-251)	GI50 (K562)	GI50 (M14)	GI50 (786-0)	GI50 (MDA-N)	GI50 (PC-3)	GI50 (DU-145)
O=NN(CCCl)C(=O)N[C@H]1CC[C@@H](C(=O)O)CC1	> 100 µM (inactive)	> 76 µM (inactive)	> 100 µM (inactive)	23 µM (inactive)	> 100 µM (inactive)	97.7 µM (inactive)	> 76.6 µM (inactive)	> 100 µM (inactive)	> 100 µM (inactive)	> 100 µM (inactive)	> 100 µM (inactive)	45.1 µM (inactive)	> 100 µM (inactive)	40.9 µM (inactive)	91 µM (inactive)	> 100 µM (inactive)	40.7 µM (inactive)	–	–	–
CC(C)(C)OC(=O)NC(CO)c1cccc(OCc2ccccc2)c1 (centres undefined)	25.9 µM (inactive)	22.1 µM (inactive)	> 100 µM (inactive)	46 µM (inactive)	> 82.6 µM (inactive)	> 65.5 µM (inactive)	> 90.4 µM (inactive)	> 100 µM (inactive)	> 100 µM (inactive)	> 100 µM (inactive)	28.2 µM (inactive)	49 µM (inactive)	> 100 µM (inactive)	94.6 µM (inactive)	36 µM (inactive)	41.9 µM (inactive)	> 100 µM (inactive)	–	–	–
COC(=O)c1cc(Br)c(Br)n1C	> 100 µM (inactive)	> 100 µM (inactive)	> 100 µM (inactive)	39.4 µM (inactive)	> 100 µM (inactive)	> 100 µM (inactive)	> 100 µM (inactive)	> 100 µM (inactive)	> 100 µM (inactive)	> 100 µM (inactive)	> 100 µM (inactive)	> 100 µM (inactive)	> 100 µM (inactive)	> 100 µM (inactive)	> 100 µM (inactive)	> 100 µM (inactive)	> 100 µM (inactive)	–	–	–
Nc1ccc(C(=O)N/C(=C\c2cccc([N+](=O)[O-])c2)c2nc3c4c(ccc3[nH]2)C(=O)c2ccccc2C4=O)cc1	> 100 µM (inactive)	29.4 µM (inactive)	8.39 µM (inactive)	4.41 µM (inactive)	19.2 µM (inactive)	10.8 µM (inactive)	73.5 µM (inactive)	10.1 µM (inactive)	12.7 µM (inactive)	30.3 µM (inactive)	57.4 µM (inactive)	15.1 µM (inactive)	19.3 µM (inactive)	14 µM (inactive)	56 µM (inactive)	> 100 µM (inactive)	17.7 µM (inactive)	–	–	–
COc1ccc(C2OC(=O)c3c2ccc2ccccc32)c(C)c1 (centres undefined)	3.78 µM (inactive)	8.04 µM (inactive)	4.79 µM (inactive)	–	2.94 µM (inactive)	5.41 µM (inactive)	1.14 µM (inactive)	2.69 µM (inactive)	–	2.92 µM (inactive)	1.77 µM (inactive)	–	–	3.43 µM (inactive)	0.697 µM (active)	1.32 µM (inactive)	3.33 µM (inactive)	0.499 µM (active)	3.27 µM (inactive)	–
O=C(/C=C/c1ccc(Cl)cc1)c1nc2ccccc2[nH]1	29 µM (inactive)	> 100 µM (inactive)	38.6 µM (inactive)	28.2 µM (inactive)	14.5 µM (inactive)	48.8 µM (inactive)	13.4 µM (inactive)	–	12.9 µM (inactive)	32.4 µM (inactive)	40.2 µM (inactive)	15.2 µM (inactive)	21.7 µM (inactive)	–	5.58 µM (inactive)	31.8 µM (inactive)	13 µM (inactive)	–	19.9 µM (inactive)	12.3 µM (inactive)
OC(c1cccnc1)C(F)(F)c1nc2ccccc2o1 (centres undefined)	> 100 µM (inactive)	> 100 µM (inactive)	> 100 µM (inactive)	–	> 100 µM (inactive)	> 100 µM (inactive)	> 100 µM (inactive)	> 100 µM (inactive)	–	> 100 µM (inactive)	> 100 µM (inactive)	> 100 µM (inactive)	–	> 100 µM (inactive)	56.5 µM (inactive)	–	> 100 µM (inactive)	–	> 100 µM (inactive)	50.8 µM (inactive)
O=C(c1ccccc1)C(c1ccccc1)C1(O)C(=O)Nc2c(Cl)ccc(Cl)c21 (centres undefined)	15.4 µM (inactive)	19.6 µM (inactive)	20.6 µM (inactive)	18.5 µM (inactive)	32.6 µM (inactive)	16.3 µM (inactive)	16.7 µM (inactive)	19.5 µM (inactive)	17.4 µM (inactive)	18.7 µM (inactive)	18.2 µM (inactive)	11.8 µM (inactive)	30.8 µM (inactive)	25.8 µM (inactive)	12.5 µM (inactive)	16.8 µM (inactive)	19.5 µM (inactive)	–	–	–
COc1cc(OCc2nc3cc(C(F)(F)F)ccc3nc2-c2ccccc2)cc(OC)c1OC	> 100 µM (inactive)	> 100 µM (inactive)	> 100 µM (inactive)	–	70.3 µM (inactive)	87.3 µM (inactive)	> 100 µM (inactive)	19.5 µM (inactive)	> 100 µM (inactive)	65.3 µM (inactive)	17.1 µM (inactive)	> 100 µM (inactive)	> 100 µM (inactive)	39.6 µM (inactive)	61.9 µM (inactive)	45.4 µM (inactive)	96.2 µM (inactive)	–	98.9 µM (inactive)	86.9 µM (inactive)
Cc1ccc2n(c1)cc(-c1ccc(/C=N/NC(=N)N/N=C/c3ccc(-c4cn5cc(C)ccc5[n+]4C)cc3)cc1)[n+]2C	50.6 µM (inactive)	–	> 100 µM (inactive)	> 100 µM (inactive)	> 100 µM (inactive)	–	> 100 µM (inactive)	–	–	19.5 µM (inactive)	41.1 µM (inactive)	–	> 100 µM (inactive)	> 100 µM (inactive)	> 10 µM (inactive)	33.9 µM (inactive)	36.3 µM (inactive)	50.2 µM (inactive)	> 100 µM (inactive)	–
CC(C)(C)NN=C1C(C)(C)C(=NNC(C)(C)C)C1(C)C	> 100 µM (inactive)	> 100 µM (inactive)	> 100 µM (inactive)	> 100 µM (inactive)	> 100 µM (inactive)	> 100 µM (inactive)	> 100 µM (inactive)	> 100 µM (inactive)	> 100 µM (inactive)	> 100 µM (inactive)	> 100 µM (inactive)	> 100 µM (inactive)	> 100 µM (inactive)	> 100 µM (inactive)	> 100 µM (inactive)	> 100 µM (inactive)	> 100 µM (inactive)	–	–	–
O=C(Cc1ccccc1)NNc1nc(NNC(=O)c2ccncc2)nc(Nc2ccccc2)n1	> 10 µM (inactive)	> 10 µM (inactive)	> 10 µM (inactive)	–	> 10 µM (inactive)	–	–	–	–	> 10 µM (inactive)	–	> 10 µM (inactive)	> 10 µM (inactive)	> 10 µM (inactive)	> 10 µM (inactive)	> 10 µM (inactive)	> 10 µM (inactive)	> 10 µM (inactive)	–	> 10 µM (inactive)
N#Cc1c2c(c(Nc3cccc(C(F)(F)F)c3)n3c1nc1ccccc13)CCC2	> 100 µM (inactive)	6.5 µM (inactive)	–	> 100 µM (inactive)	> 100 µM (inactive)	> 100 µM (inactive)	> 100 µM (inactive)	> 100 µM (inactive)	> 100 µM (inactive)	> 100 µM (inactive)	> 100 µM (inactive)	> 100 µM (inactive)	> 100 µM (inactive)	> 100 µM (inactive)	–	–	> 100 µM (inactive)	–	–	> 100 µM (inactive)
CCCCCCCCCC(=O)Oc1cccc2onc(C)c12	> 100 µM (inactive)	> 100 µM (inactive)	> 100 µM (inactive)	> 100 µM (inactive)	> 100 µM (inactive)	> 100 µM (inactive)	> 100 µM (inactive)	> 100 µM (inactive)	> 100 µM (inactive)	> 100 µM (inactive)	> 100 µM (inactive)	> 100 µM (inactive)	> 100 µM (inactive)	> 100 µM (inactive)	73.1 µM (inactive)	> 100 µM (inactive)	> 100 µM (inactive)	–	–	–
O=C1N(c2ccccc2)C2(c3ccccc3)CC3CCCC13S2 (centres undefined)	16.7 µM (inactive)	67.5 µM (inactive)	78 µM (inactive)	23.7 µM (inactive)	0.249 µM (active)	50.5 µM (inactive)	50.7 µM (inactive)	> 100 µM (inactive)	55.5 µM (inactive)	> 100 µM (inactive)	33.3 µM (inactive)	53.5 µM (inactive)	> 100 µM (inactive)	49.5 µM (inactive)	38.7 µM (inactive)	> 100 µM (inactive)	78.9 µM (inactive)	–	21.9 µM (inactive)	> 100 µM (inactive)
O=S1(=O)c2cnccc2N=C(NCc2ccccc2)N1c1ccccc1	> 100 µM (inactive)	57.5 µM (inactive)	55.1 µM (inactive)	42.1 µM (inactive)	30.1 µM (inactive)	64.3 µM (inactive)	> 100 µM (inactive)	> 100 µM (inactive)	45.7 µM (inactive)	> 100 µM (inactive)	55.5 µM (inactive)	> 100 µM (inactive)	> 100 µM (inactive)	98.2 µM (inactive)	> 100 µM (inactive)	> 100 µM (inactive)	> 100 µM (inactive)	–	75.3 µM (inactive)	67.1 µM (inactive)
CC(C)(C)NCC(O)COc1cccc2[nH]c(C#N)cc12 (centres undefined) [CYANOPINDOLOL]	–	–	> 100 µM (inactive)	27.2 µM (inactive)	84.5 µM (inactive)	> 100 µM (inactive)	> 100 µM (inactive)	–	> 100 µM (inactive)	> 100 µM (inactive)	> 100 µM (inactive)	–	> 100 µM (inactive)	> 100 µM (inactive)	–	> 100 µM (inactive)	> 100 µM (inactive)	> 100 µM (inactive)	> 100 µM (inactive)	> 100 µM (inactive)
